From patent US7728039B2, “Biphenyl and Naphthyl-Phenyl Hydroxamic Acid Derivatives” (Sigma-Tau Industrie Farmaceutiche Riunite S.p.A., priority 2005, dated 2010)
Read-outs that look alike come from different tables or passages of the source.

How the values were obtained:
[1] = system: NB4 human promyelocytic leukaemia; experiment: Sulphorodamine B cytotoxicity test on NB4 cells; format: cell-based; conditions: Homo sapiens, NB-4
Description: (§1) The cytotoxic effect of some biphenyl and phenylnaphthyl compounds bearing a hydroxamic acid group is reported herein. […] The chemical structures of the tested compounds of the invention and of the corresponding compounds bearing a carboxylic acid group are reported in FIG. 1. To test the effects of the compounds on cell growth, NB4 human promyelocytic leukaemia, NCI-H460 non-small cell carcinoma cells, H460/(R9A) (resistant to carboxylic acid-bearing compounds: ST1898, ST1926, ST1964), HCT-116 human colon carcinoma cells, IGROV-1 and IGROV-1/Pt (sensitive ovarian carcinoma and platinum-resistant ovarian carcinoma cells, respectively) were used. NB4 and NCI-H460 tumour cells were grown in RPMI 1640 containing 10% foetal bovine serum (GIBCO), HCT-116 tumour cells were grown in McCoy's 5A containing 10% foetal bovine serum (GIBCO), IGROV-1 and IGROV-1/Pt were grown in DMEM containing 10% foetal bovine serum (GIBCO),
(§2) Tumour cells were seeded in 96-well tissue culture plates at approximately 10% confluence and were allowed to attach and recover for at least 24 h. Varying concentrations of the drugs were then added to each well to calculate their IC50 value (the concentration which inhibits the 50% of cell survival). The plates were incubated for 24 h at 37° C. At the end of the treatment, for NB4 tumour cells in suspension, the procedure was performed as follows: medium culture was removed by centrifugation of the plates at 1600×g for 10 min and the surnatant was removed. 250 μl PBS were added, then the plates were centrifuged at 1600×g for 10 min, the surnatant was removed. 200 μl/well of medium culture RPMI 1640 containing 10% FCS were added and the plates were incubated at 37° C. for other 48 h. The plates were centrifuged again at 1600×g for 10 min, the medium culture was removed and 200 μl PBS and 50 μl of cold 80% TCA were added. The plates were incubated on ice for at least 1 h. TCA was removed, the plates were washed 3 times for immersion in distilled-water and dried on paper and at 40° C. for 5 min. Then 200 μl of 0.4% sulphorodamine B in 1% acetic acid were added. The plates were incubated at room temperature for other 30 min. Sulphorodamine B was removed, the plates were washed for immersion in 1% acetic acid for 3 times, then they were dried on paper and at 40° C. for 5 min. Then 200 μl Tris 10 mM were added, the plates were kept under stirring for 20 min. The survival cell was determined as optical density by a Multiskan spectrofluorimeter at 540 nm. For the tumour cells in adhesion (NCI-H460 and HCT-116), the procedure was as above mentioned, except that at the end of the treatment, the plates were washed by remotion of the surnatant and addition of PBS 3 times without centrifugation. Also the last day of the assay, the surnatant was removed without centrifugation.
(§3) The amount of cells killed was calculated as the percentage decrease in sulphorodamine B binding compared with control cultures. The IC50 values (the concentration which inhibits the 50% of cell survival) were calculated with the “ALLFIT” program.

[2] = system: IGROV-1 (sensitive ovarian carcinoma cells); experiment: Sulphorodamine B cytotoxicity test on IGROV-1 cells; format: cell-based; conditions: Homo sapiens, read-out: IC50 ± SD, IGROV-1
Description: as §1, §2, §3

[3] = system: IGROV-1/Pt (platinum-resistant ovarian carcinoma cells); experiment: Sulphorodamine B cytotoxicity test on IGROV-1/Pt cells; format: cell-based; conditions: Homo sapiens, read-out: IC50 ± SD, IGROV-1/Pt
Description: as §1, §2, §3

[4] = system: NCI-H460 non-small cell carcinoma cells; experiment: Sulphorodamine B cytotoxicity test on NCI-H460 cells; format: cell-based; conditions: Homo sapiens, SRB, read-out: IC50 ± SD, NCI-H460
Protocol: The chemical structures of the tested compounds of the invention and of the corresponding compounds bearing a carboxylic acid group are reported in FIG. 1. […] NB4 and NCI-H460 tumour cells were grown in RPMI 1640 containing 10% foetal bovine serum (GIBCO), HCT-116 tumour cells were grown in McCoy's 5A containing 10% foetal bovine serum (GIBCO), IGROV-1 and IGROV-1/Pt were grown in DMEM containing 10% foetal bovine serum (GIBCO),
as §2, §3

[5] = system: HCT-116 human colon carcinoma cells; experiment: Sulphorodamine B cytotoxicity test on HCT-116 cells; format: cell-based; conditions: Homo sapiens, Table 2, SRB, read-out: IC50 ± SD, HCT-116
Description: as §1, §2, §3

[6] = system: NCI-H460 R9A tumour cells (H460/(R9A), resistant to carboxylic acid-bearing compounds); experiment: Sulphorodamine B cytotoxicity test on ST1926-resistant NCI-H460 R9A cells; format: cell-based; conditions: for overcoming of resistance on H460/R9A: H460/R9A versus sensitive NCI-H460, result in words; for IC50: Homo sapiens, Table 3, resistant NCI-H460 R9A, SRB, read-out: IC50 ± SD, NCI-H460 R9A
Description: as §1, §2, §3
The resistant tumour cell line NCI H460 R9A was a clone selected for the resistance to ST1926 (Table 3). To obtain the resistant tumour cell line, the sensitive NCI-H460 tumour cells were treated with 2 μM ST1926 for 24 hours and maintained in drug-free medium for a recovering time of 7 days. Then, survived cells were cultured applying a continuous selective pressure of 2 μM (10×IC50) ST1926. Resistant NCI-H460 cells were subculture for 3-4 times before increasing ST1926 concentration to 4 μM (20×IC50). Survived cells were seeded in 96-well plates to isolate resistant cells clones and maintained in complete medium with 4 μM of ST1926. The tumour cell line was maintained at least for one week, before seeding for SRB cytotoxicity assay, in drug-free medium.
To evaluate the effect of the compound on survival cells, the sulphorodamine B test was used. […]

[7] = system: NB4 promyelocytic leukaemia cells; experiment: Differentiation of NB4 tumour cells by nitroblue tetrazolium (NBT) reduction, with or without ATRA; format: cell-based, human; conditions: 3 days, NBT-reducing activity; for AC50: Homo sapiens, 72 h, combined with suboptimal ATRA (5 nM); for Differentiation AC50: compound alone (without ATRA)
Description: Relevant aspects of the differentiation program set in motion by ATRA in APL cells can be reproduced in primary cultures of leukemic blasts and in the derived NB4 cell line, which is a unique model for the study of the pharmacologic activity of ATRA and derivatives. Pharmacological concentrations of ATRA arrest the growth of NB4 blasts and differentiate them into cells that resemble mature neutrophils. This is followed by a slow process of apoptosis. […] In particular, the differentiation of NB4 tumour cells induced by the compounds was determined by nitroblue tetrazolium (NBT) reduction. NB4 promyelocytic leukaemia cells were seeded at a density of 150000 cells/ml in RPMI 1640 medium containing 10% FCS. To measure the cytodifferentiating effect of the molecules, tumour cells were treated with the compounds at different concentrations starting from at least 0.4 μM to 0.01 μM, whereas to measure the enhancing action of the molecules of ATRA activity, NB4 cells were treated with increasing concentrations of the molecules in the presence or absence of ATRA at a suboptimal concentration (5 nM).
Tumour cells were incubated for 3 days at 37° C. without replacing the medium culture. To measure the prodifferentiative effect, 500,000 cells were collected, centrifuged and resuspended in 1 ml of RPMI 1640 medium containing 10% FCS, 1 mg/ml of nitroblue tetrazolium (NBT) and 100 ng of PMA (4-phorbol-12-myristate-13-acetate). The tumour cells resuspended were incubated at 37° C. for 60 min. At the end of the incubation, tumour cells were centrifuged and the pellet was resuspended in 1 ml of PBS containing Triton ×100 at 10%. The samples were sonicated and the absorbance was determined at 540 nm with a spectrophotometer. Differentiation of tumor cells as AC50 (activating concentration) was evaluated as the concentration of the compound giving 50% of the maximal induction of NBT-reducing activity with or without ATRA.

[8] = Table 4, NB4 tumour cells, compound alone, read-out: IC50 (μM ± SD)

Structure (SMILES)	IC50 ([1]; Table 1, NB4, 24 h treatment, 48 h recovery, SRB, read-out: IC50 ± SD, NB4) [µM]	IC50 [1, 8] [µM]	IC50 ([2]; Table 1, SRB) [nM]	IC50 ([3]; Table 1, SRB) [nM]	IC50 ([4]; NCI-H460, Table 2, NCI-H460) [nM]	IC50 [5] [nM]	overcoming of resistance on H460/R9A [6]	IC50 [6] [nM]	AC50 [7] [nM]	Differentiation AC50 [7]	IC50 ([2]; Table 2, SRB) [nM]	IC50 ([3]; Table 2, SRB) [nM]	IC50 ([4]; NCI-H460, Table 3, sensitive NCI-H460) [nM]	RI (resistance index) ([6]; IC50 on resistant tumour cell line/IC50 on sensitive tumour cell line (NCI-H460 R9A / NCI-H460))
O=C(/C=C/c1ccc(-c2ccc(O)cc2)cc1)NO [ST2782, E-3-(4′-hydroxy-biphenyl-4-yl)-N-hydroxy-acrylamide]	2.3 ± 0.02	2.3 ± 0.02	8800 ± 3000	7700 ± 1600	6000 ± 900	6700 ± 700	the same characteristic are retained	1800 ± 160	2470	no differentiation				
O=C(/C=C/c1ccc(-c2ccc(O)c(C34CC5CC(CC(C5)C3)C4)c2)cc1)NO [ST2992, E-3-[3′-(1-adamantyl)-4′-hydroxy-biphenyl-4-yl]-N-hydroxy-acrylamide]		0.68 ± 0.07			1200 ± 30	3000 ± 200	completely overcame the resistance	1200 ± 100	190	no differentiation	770 ± 50	550 ± 50	1200 ± 30	1.0
